Test results as given in article PMC12458691 (Inorganic Chemistry, 2025).
Where two headings read alike, the source gives them in different places. Marks after values point to notes of the source that are not given here.

Legend:
[1] = Protonation constants by potentiometric and UV–vis titrations; type: physicochemical
Method: (§1) Caution! Perchlorate salts are explosive and should be handled with care; such compounds should never be heated as solids. The potentiometric titrations were carried out at 298.1 ± 0.1 K using 0.15 M NaClO4 as the supporting electrolyte. The experimental procedure (buret, potentiometer, cell, stirrer, microcomputer, etc.) has been fully described elsewhere. The acquisition of raw potentiometric data was performed with the computer program PASAT. The reference electrode was a Ag/AgCl electrode in a saturated KCl solution. The glass electrode was calibrated as a hydrogen-ion concentration probe by titration of previously standardized amounts of HCl with CO2-free NaOH solutions, and the equivalent point was determined by Gran’s method, , which gives the standard potential, E̊, and the ionic product of water (pK w = 13.73(1)). The computer program […] was used to calculate the protonation and stability constants. The HYSS program was used to obtain the distribution diagrams. The pH range investigated by using this technique was 2.5–11.0, in accordance with the linear response range of glass electrodes. The solutions were extensively deaerated with an argon flow before the potentiometric runs. A moderate argon flow was maintained throughout the course of the titrations. The different titration curves for each system (at least two) were treated either as a single set or as separate curves without significant variations in the values of the stability constants. Finally, the sets of data were merged and treated simultaneously to give the final stability constants.
The solvents used were of spectroscopic or equivalent grade. Water was twice distilled and passed through a Millipore apparatus. The pH values were measured with a Metrohm 713 pH meter, and adjustments of the hydrogen-ion concentration of the solutions were made with diluted HCl and NaOH solutions. UV–vis absorption spectra were recorded between pH 2 and 11 with an Agilent 8453 spectrometer. The resulting data from the titrations were used to calculate the third protonation constant of ^ COOMe PyNMe 3 . For this, the HypSpec program was employed, considering all of the absorbance intensities in the range of 250 and 350 nm.

[2] = Stability constants and speciation of Cu2+ complexes by potentiometric measurements; type: physicochemical; details: for pCu: calculated for theoretical solutions
Method: as §1

[3] = Stability constants and speciation of Fe2+ complexes by potentiometric measurements; type: physicochemical; details: for pFe: calculated for theoretical solutions
Method: as §1

[4] = McCord–Fridovich nitroblue tetrazolium (NBT) SOD activity assay; type: biochemical
From the text: First, the SOD activity of the complexes was studied by means of the nitroblue tetrazolium (NBT) method, also known as McCord–Fridovich method. This is a widely used, indirect method based on the side production of superoxide anions by the xanthine oxidase enzyme and their capture by the NBT dye to give formazan. − A compound displaying SOD activity decreases the flow of superoxide radical anions and, thereby, the production of formazan (see the representation of the fitting of the data in Figures and S13–S16). Thus, by following the absorption band of formazan at 560 nm, the SOD activity of the studied mimetic can be quantified. Blank experiments were recorded with the ligands alone without observing any effect. The values of IC50, defined as the amount of the compound necessary for achieving 50% inhibition of NBT reduction to formazan by the superoxide anion, together with the catalytic constants (k cat), were obtained as indicated in the Experimental Section and are summarized in Table .
The SOD-like activity was determined by using the nitroblue tetrazolium (NBT) method, which despite its limitations is frequently used to estimate the activity of SOD mimetics. − The assays were carried out in a pH = 7.4 50 mM HEPES buffer at 298 K. The xanthine (2.2 × 10^–4 M) and xanthine oxidase (ca. 3 UN) system was used to generate a reproducible and constant flux of superoxide anions. […] Data in the absence of the complex were used as a reference. […] The percentage of inhibition of the NBT reduction to formazan was used as a measure of the SOD activity of the compounds. The concentration of the complex required to yield 50% inhibition of NBT reduction (IC50) was determined from a plot of percentage inhibition versus complex concentration. The IC50 data were calculated from the mean values of (at least) three independent measurements. The catalytic constant was calculated from the IC50 using the equation k cat = k NBT[NBT]/IC50 where k NBT = (5.94 ± 0.5) × 10^4 M^–1 s^–1. −

[5] = Table S2, 0.15 M NaClO4, 298.1 K, ref 1 of the SI, cited from earlier work
[6] = Table S3, 0.15 M NaClO4, 298.1 K; ref 1 of the SI; cited from earlier work
[7] = set-up: method as in earlier work; details: Table S3, 0.15 M NaClO4, 298.1 K; ref 1 of the SI; cited from earlier work
[8] = set-up: method as in footnotes c–f, numbers not given; details: Cu2+ complexes/salt/enzyme, literature data for comparison; ref footnotes c–f, numbers not given; cited from earlier work
[9] = set-up: method as in number not given; details: Mn2+ complexes of the ligands, recently reported; ref number not given; cited from earlier work
[10] = 0.15 M NaClO4, 298.1 K, potentiometry

SMILES	log K, H + HL ⇄ H2L (stepwise protonation constant) ([5]; potentiometry)	log K, H + L ⇄ HL (stepwise protonation constant) ([5]; potentiometry)	log β (∑log K, protonation) [5]	log K, [CuL(OH)]+ + H2O ⇄ [CuL(OH)2] + H+ [6]	log K, [CuL]2+ + H2O ⇄ [CuL(OH)]+ + H+ [6]	log K, Fe2+ + L ⇄ [FeL]2+ (stability constant) [7]	log K, [FeL]2+ + H2O ⇄ [FeL(OH)] + H+ [7]	k cat (SOD catalytic constant) [8]	TON of catalase activity of the Mn2+ complexes [9]	other results
COC(=O)c1cc2nc(c1)CN(C)CCN(C)CCN(C)C2 [^ COOMe PyNMe 3]	–	–	–	–	–	–	–	–	–	log K, H2L^(2+x)++H^+⇄H3L^(3+x)+ (stepwise protonation constant) ([1]; 0.15 M NaClO4, 298.1 K, obtained by UV–vis spectroscopic titration): 2.48(1) ^f; log K, HL^(1+x)++H^+⇄H2L^(2+x)+ (stepwise protonation constant) [1, 10]: 7.03(1); log K, L^x+H^+⇄HL^(1+x)+ (stepwise protonation constant) [1, 10]: 10.57(2); three protonation constants, span from first to third ([1]; potentiometric titrations (third constant of COOMePyNMe3 by UV)): 10.57 to 2.48 logarithmic units; log K, Cu+L⇄[CuL] (stability constant) ([2]; 0.15 M NaClO4, 298.1 K): 16.84(3); log K, [CuL]+H2O⇄[CuL(OH)]+H ([2]; 0.15 M NaClO4, 298.1 K): –8.26(4); pCu ([2]; pH 7.4, [L]=[M]=1 µM): 9.79; pCu ([2]; pH 7.4, [L]=[M]=10 µM): 9.29; log K, Fe+L⇄[FeL] (stability constant) ([3]; 0.15 M NaClO4, 298.1 K): 9.46(2); log K, [FeL]+H2O⇄[FeL(OH)]+H ([3]; 0.15 M NaClO4, 298.1 K): –8.18(5); pFe ([3]; pH 7.4, [L]=[M]=1 µM): 6.27; pFe ([3]; pH 7.4, [L]=[M]=10 µM): 5.66; SOD activity of the Fe2+ complexes (in words) ([4]; NBT method, under the conditions of this study): negligible SOD activity; k cat (SOD catalytic constant) ([4]; metal complexes, calculated from IC50 as kNBT[NBT]/IC50, pH 7.4, [NBT] = 59 μM): 40.3 10^6 M^–1 s^–1; increase in the SOD catalytic constant of the Cu2+ complex on functionalization of the pyridine ([4]; relative to Cu2+ complexes of HPyNH3 or HPyNMe3): 34 fold
c1cc2nc(c1)CNCCNCCNC2 [^ H PyNH 3]	7.96(1)	10.54(1)	20.40	-10.7(1)	-8.68(8)	12.68(2)	-6.94(5)	1.7 10^6 M^–1 s^–1	25–37	log K, H + H2L ⇄ H3L (stepwise protonation constant) ([5]; potentiometry): 1.90(1)
CN1CCN(C)Cc2cccc(n2)CN(C)CC1 [^ H PyNMe 3]	7.37(1)	10.88(1)	18.25	-11.31(8)	-8.53(4)	9.72(2)	-9.08(4)	1.2 10^6 M^–1 s^–1	–	log K, [FeL(OH)]+ + H2O ⇄ [FeL(OH)2] + H+ [7]: -10.58(5)
COc1cc2nc(c1)CNCCNCCNC2 [^ MeO PyNH 3]	–	–	–	–	–	–	–	–	25–37	–
Oc1cc2nc(c1)CNCCNCCNC2 [^ OH PyNH 3]	–	–	–	–	–	–	–	–	25–37	–
